One molecule from patent US7595330B2, “Benzimidazole thiophene compounds” (SmithKline Beecham Corporation, priority 2005, dated 2009) can be followed below.

Data set [1] has as its system SKOV-3. Kind of data set: Cell-Titer-Glo inhibition of cell proliferation, SKOV-3. The settings on record: Homo sapiens, SK-OV-3, CellTiter-Glo, 72 h. It counts as cell-based. The protocol: (§1) V. Cell-Titer-Glo—Inhibition of Cell Proliferation by PLK1 Inhibitors
(§2) Exponentially growing cell lines of different tumor origins, cultured in appropriate media containing 10% fetal bovine serum at 37° C. in a 5% CO2 incubator were plated at low density (less than 2000 cells/well) in 96-well plates. Twenty four hours post-plating, cells were treated with different concentrations of test compounds ranging from 10 uM to 0.04 nM. Several wells were left untreated as a control. Seventy two hours post-treatment, cell numbers were determined using 50-100 ul per well of CellTiter-Glo (Promega #G7573). Plates were incubated at room temperature for 15 minutes and the chemiluminescent signal was read on the Victor V or Envison 2100 reader.
(§3) The Cell-Titer Glo data are shown in Table 2 below and represent a compilation of several different experiments, each performed using the general parameters outlined above, although minor variations may have been employed in some instances.
In general terms: In ATP-based viability assays light output follows the ATP content of the culture.

The subject of data set [2] is A549-L. Put plainly: Cell-Titer-Glo inhibition of cell proliferation, A549-L. In kind it is cell-based. The conditions noted are these: CellTiter-Glo, 72 h. The protocol:
as §1, §2, §3

Data set [3] in a line: High throughput solubility assay. It counts as physicochemical. The settings on record: aqueous buffer, pH 7.4, 0.05M phosphate buffer. In outline: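 Compound (up to 200 μM) shaken 24 h in 0.05M phosphate buffer pH 7.4, then filtered (0.45μ) and centrifuged. Solubility derived from HPLC peak area relative to a 20 μM standard in an aqueous/organic solvent mixture.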
Data set [4] concerns Hela. Put plainly: Cell-Titer-Glo inhibition of cell proliferation, Hela. It counts as cell-based. The conditions noted are these: Homo sapiens, CellTiter-Glo, 72 h. The method, then: as §1, §2, §3
Data set [5] deals with H460. Put plainly: Methylene blue growth inhibition assay, H460. In kind it is cell-based. The conditions noted are these: Homo sapiens, NCI-H460; methylene blue, 72 h, H460; read-out: H460 IC50. The gist of the method:
(§4)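 Tumour lines and HFF, plated at cell-line-specific densities in DMEM with 10% FBS, were exposed next day to compound (final DMSO 0.3%) for 72 h at 37 °C. Biomass was stained with methylene blue, solubilized in 1% N-lauroyl sarcosine and read at OD 620 nm; percent growth inhibition was calculated against vehicle controls.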

Data set [6] concerns MiaPaca. Put plainly: Cell-Titer-Glo inhibition of cell proliferation, MiaPaca. It counts as cell-based. The conditions noted are these: Homo sapiens, MIA PaCa-2, CellTiter-Glo, 72 h. The method, then: as §1, §2, §3
Data set [7] concerns BXPC3. Put plainly: Cell-Titer-Glo inhibition of cell proliferation, BXPC3. It counts as cell-based. The settings on record: Homo sapiens, BXPC-3, CellTiter-Glo, 72 h. The protocol: as §1, §2, §3
Data set [8] deals with MCF7. Put plainly: Cell-Titer-Glo inhibition of cell proliferation, MCF7. In kind it is cell-based. The settings on record: Homo sapiens, CellTiter-Glo, 72 h. The method, then: as §1, §2, §3
For data set [9], the system named is MV522. Put plainly: Cell-Titer-Glo inhibition of cell proliferation, MV522. It counts as cell-based. The conditions noted are these: CellTiter-Glo, 72 h. The protocol: as §1, §2, §3
The test system of data set [10] is A549. Kind of data set: Methylene blue growth inhibition assay, A549. In kind it is cell-based. The conditions noted are these: Homo sapiens; methylene blue, 72 h, A549; read-out: A549 IC50. In outline:
as §4

Usually IC50 stands for the midpoint of a concentration-inhibition curve. For orientation: solubility means the dissolved amount per volume that the medium holds.

The structures appear in SMILES notation.

For the molecule `C[C@@H](Oc1cc(-n2cnc3ccc(CN4CCN(C)CC4)cc32)sc1C(N)=O)c1ccccc1C(F)(F)F` [Example 3, 5-{6-[(4-Methylpipiperazin-1-yl)methyl]-1H-benzimidazol-1-yl}-3-{(1R)-1-[2-(trifluoromethyl)phenyl]ethoxy}thiophene-2-carboxamide], the half-maximal inhibitory concentration (IC50) is below 500 nM in data set [1]; below 500 nM in [2]; below 500 nM in data set [4]; below 100 nM in data set [5]; below 500 nM in data set [6]; below 500 nM in data set [7]. The IC50 in [8] was below 500 nM; in [9], below 500 nM; in data set [10] it was below 100 nM. Further, the solubility at 24 h in [3] is above 100 µM.
